Results from patent US10562912B2 (C&C Research Laboratories, priority 2013, dated 2020).

Key:
Type in all cases: cell-based
STAT3 = target: T1, STAT3 (Homo sapiens, UniProt P40763); assay: STAT3 reporter gene assay (luciferase), LNCaP stable cell line (pSTAT3-TA-luc), IL-6 stimulation
T1 construct: plasmid pSTAT3-TA-luc), which contains a stably operating STAT3 promoter; endogenous in cells
In short: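 LNCaP cells stably carrying pSTAT3-TA-luc, in RPMI1640 with 3% DCC-FBS, were treated with compound and then stimulated with 10 ng/mL IL-6 for 24–48 h at 37 °C. Luciferase activity was measured in lysates. A parallel plate measured viability by CellTiter-Glo, with stimulated 0.1% DMSO wells as the positive control.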

LNCaP = assay: Cell growth inhibition assay, prostate cancer cell line LNCaP (medium with 10 ng/mL IL-6); settings: Homo sapiens, medium supplemented with 10 ng/mL of IL-6, 10,000 cells/well
DU-145 = assay: Cell growth inhibition assay, prostate cancer cell line DU-145; settings: Homo sapiens, DU-145 prostate cancer cell line
In short: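 Luminescent CellTiter-Glo readout of viable cells after 72–96 h compound exposure (37° C., 5% CO2). Seeding: 3,000 cells/well for DU-145 and HCT116, 5,000 cells/well for SW626. Controls were medium without cells and 0.1% DMSO vehicle.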

HEL92.1.7 = assay: Cell growth inhibition assay, blood cancer cell line HEL92.1.7; settings: Homo sapiens, HEL 92.1.7, HEL92.1.7 blood cancer cell line
Procedure: The inhibitory effects of the compounds of the present invention against the growth of cancer cells were evaluated as shown below. The cancer cell lines including stomach cancer cell line (AGS), breast cancer cell lines (MDA-MB-231, MDA-MB-468, and BT-549), prostate cancer cell lines (LNCaP and DU-145), colon cancer cell line (HCT116), ovarian cancer cell line (SW626), liver cancer cell line (Hep3B), kidney cancer cell line (ACHN), lung cancer cell line (NCI-H23) and blood cancer cell lines (HEL92.1.7 and U266) were cultured under the protocol provided by each supplier. A medium supplemented with 10 ng/mL of IL-6 was used for LNCaP, a prostate cancer cell line, when treated with a drug. Each type of cells to be used in experiments were sub-cultured in a 96-well plate by counting the exact number of cells using Tali™ Image-based Cytometer (Life Technologies). In a 96-well plate, AGS, HCT116, and DU-145 were employed with 3,000 cells/well; NCI-H23, SW626, Hep3B, ACHN, BT-549, MDA-MB-231, HEL92.1.7, and U266 were employed with 5,000 cells/well; and LNCaP and MDA-MB-468 were employed with 10,000 cells/well. The cells were treated with the compounds listed in Examples which were diluted in various concentrations. Upon completion of the compounds treatment, AGS, HCT116, SW626, DU145, NCI-H23, Hep3B, ACHN, BT-549, LNCaP, HEL92.1.7, and U266 cells were cultured at 37° C. under 5% CO2 for from 72 to 96 hours, and MDA-MB-231 and MDA-MB-468 cells were cultured at 37° C. in air for from 72 to 96 hours. Subsequently, the cells were observed under microscope and drug precipitation and particular findings were investigated and recorded. And then, the 96-well plate was placed at room temperature for 30 minutes, added with 20 μL/well of CellTiter-Glo solution (Cat No. G7573, Promega) and shaken for 10 minutes, followed by being subjected to the measurement using PHERAstar™ microplate reader (BMG LABTECH) according to the supplier's general luminometer protocol. Wells where only culture liquid added without cell plating were used as a negative control, whereas wells where culture liquid containing 0.1% DMSO instead of the compounds listed in Examples were used as a positive control.

T1 sequence (P40763 whole entry): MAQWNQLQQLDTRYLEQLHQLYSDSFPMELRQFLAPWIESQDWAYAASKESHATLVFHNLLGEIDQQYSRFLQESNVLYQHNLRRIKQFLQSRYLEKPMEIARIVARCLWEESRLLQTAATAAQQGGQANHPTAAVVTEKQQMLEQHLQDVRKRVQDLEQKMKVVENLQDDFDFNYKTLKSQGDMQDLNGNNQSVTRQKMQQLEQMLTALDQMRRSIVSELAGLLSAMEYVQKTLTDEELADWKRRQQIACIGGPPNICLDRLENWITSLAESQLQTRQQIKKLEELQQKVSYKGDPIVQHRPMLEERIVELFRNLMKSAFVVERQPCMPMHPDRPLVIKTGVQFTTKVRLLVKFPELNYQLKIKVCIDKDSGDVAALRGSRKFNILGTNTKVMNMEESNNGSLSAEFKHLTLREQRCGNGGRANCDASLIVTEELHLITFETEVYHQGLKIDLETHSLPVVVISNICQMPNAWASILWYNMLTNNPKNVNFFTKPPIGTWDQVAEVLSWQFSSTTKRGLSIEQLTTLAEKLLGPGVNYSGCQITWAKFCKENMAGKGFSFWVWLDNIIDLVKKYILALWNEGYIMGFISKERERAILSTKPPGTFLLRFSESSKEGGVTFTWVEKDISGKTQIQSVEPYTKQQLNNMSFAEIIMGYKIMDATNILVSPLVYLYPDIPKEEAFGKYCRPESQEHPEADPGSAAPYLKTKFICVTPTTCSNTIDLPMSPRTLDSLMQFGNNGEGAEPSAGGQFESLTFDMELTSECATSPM

| IC50 (STAT3) [µM] | IC50 (LNCaP) [µM] | IC50 (DU-145) [µM] | IC50 (HEL92.1.7) [µM] | SMILES |
| --- | --- | --- | --- | --- |
| 0.011 | 0.035 | 0.007 | 0.029 | COCCS(=O)(=O)Nc1ccc2sc(C(=O)Nc3cc(Cl)cc(C(C)(C)c4cc(OC(C)C)cc(OC(F)(F)F)c4)c3)cc2c1 [Example 195, N-(3-chloro-5-(2-(3-isopropoxy-5-(trifluoromethoxy)phenyl)propan-2-yl)phenyl)-5-((2-methoxyethyl)sulfonamido)benzo[b]thiophene-2-carboxamide] |
| 0.14 | 0.28 | 0.073 | 0.57 | CC(C)Oc1cc(OC(F)(F)F)cc(C(C)(C)c2cc(Cl)cc(NC(=O)c3cc4cc(NS(=O)(=O)CCN(C)O)ccc4s3)c2)c1 [Example 210, N-(3-chloro-5-(2-(3-isopropoxy-5-(trifluoromethoxy)phenyl)propan-2-yl)phenyl)-5-((2-(hydroxy(methyl)amino)ethyl)sulfonamido)benzo[b]thiophene-2-carboxamide] |
| 0.055 | 0.15 | 0.11 | 0.34 | CC(C)Oc1cc(OC(F)(F)F)cc(C(C)(C)c2cc(Cl)cc(NC(=O)c3nc4cc(NS(C)(=O)=O)ccc4s3)c2)c1 [Example 81, N-(3-chloro-5-(2-(3-isopropoxy-5-(trifluoromethoxy)phenyl)propan-2-yl)phenyl)-5-(methylsulfonamido)benzo[d]thiazole-2-carboxamide] |
| 0.036 | 0.021 | 0.012 | 0.085 | CN(c1ccc(Cl)cc1)c1cc(Cl)cc(NC(=O)c2cc3cc(NS(C)(=O)=O)ccc3s2)c1 [Example 440, N-(3-chloro-5-((4-chlorophenyl)(methyl)amino)phenyl)-5-(methylsulfonamido)benzo[b]thiophene-2-carboxamide] |
| 0.073 | 0.022 | 0.019 | 0.32 | CC(C)Oc1cc(N2CCCC2)cc(C(C)(C)c2cc(Cl)cc(NC(=O)c3cc4cc(NS(C)(=O)=O)ccc4s3)c2)c1 [Example 146, N-(3-chloro-5-(2-(3-isopropoxy-5-(pyrrolidin-1-yl)phenyl)propan-2-yl)phenyl)-5-(methylsulfonamido)benzo[b]thiophene-2-carboxamide] |
| 0.072 | 0.075 | 0.047 | 0.23 | CC(C)(c1cc(F)cc(NC(=O)c2cc3cc(NS(C)(=O)=O)ncc3s2)c1)c1cc(OC(F)(F)F)cc(OC(F)(F)C(F)F)c1 [Example 86, N-(3-fluoro-5-(2-(3-(1,1,2,2-tetrafluoroethoxy)-5-(trifluoromethoxy)phenyl)propan-2-yl)phenyl)-5-(methylsulfonamido)thieno[2,3-c]pyridine-2-carboxamide] |
| 0.007 | 0.014 | 0.007 | 0.013 | CCS(=O)(=O)Nc1ccc2sc(C(=O)Nc3cc(Cl)cc(C(C)(C)c4cc(OC(C)C)cc(OC(F)(F)F)c4)c3)cc2c1 [Example 202, N-(3-chloro-5-(2-(3-isopropoxy-5-(trifluoromethoxy)phenyl)propan-2-yl)phenyl)-5-(ethylsulfonamido)benzo[b]thiophene-2-carboxamide] |
| 0.069 | 0.064 | 0.052 | 0.2 | CC(C)(c1cc(Cl)cc(NC(=O)c2cc3cc(NS(C)(=O)=O)ccc3s2)c1)c1ccc(F)c(F)c1 [Example 162, N-(3-chloro-5-(2-(3,4-difluorophenyl)propan-2-yl)phenyl)-5-(methylsulfonamido)benzo[b]thiophene-2-carboxamide] |
| 0.1 | 0.14 | 0.064 | 0.26 | COc1cc(OC(F)(F)F)cc(-c2cc(Cl)cc(NC(=O)c3cc4cc(N(C)S(C)(=O)=O)c(F)cc4s3)c2)c1 [Example 326, N-(5-chloro-3′-methoxy-5′-(trifluoromethoxy)-[1,1′-biphenyl]-3-yl)-6-fluoro-5-(N-methylmethylsulfonamido)benzo[b]thiophene-2-carboxamide] |
